Laboratory results from US11582970B2, “2-aminoimidazole-phenyl derivatives useful for controlling microbial growth” (NORTH CAROLINA STATE UNIVERSITY, priority 2017, dated 2023).
Read-outs that look alike come from different tables or passages of the source.

Experiments:
Assay type in all cases: cell-based
[1] = system: E. coli AR# 48; assay: MIC of meropenem in combination with compound, CDC carbapenem resistant strain
Experimental: (§1) EXAMPLE 2: Six compounds were assessed for their activity in combination with meropenem against carbapenem resistant strains of A. baumannii (Ab), K. pneumoniae (Kp), and E. coli acquired from the Center for Disease Control (CDC). AR #—assigned AR-BANK number from the CDC.

[2] = system: E. coli AR# 55; assay: as above
Experimental: as §1

[3] = system: A. baumannii (Ab) AR# 52; assay: as above
Experimental: as §1

[4] = system: A. baumannii (Ab) AR# 70; assay: as above
Experimental: as §1

[5] = system: K. pneumoniae (Kp) AR# 98; assay: as above
Experimental: as §1

[6] = system: A. baumannii (Ab) AR# 83; assay: as above
Experimental: as §1

[7] = system: A. baumannii (Ab) AR# 63; assay: as above
Experimental: as §1

[8] = system: A. baumannii (Ab) AR# 56; assay: as above
Experimental: as §1

[9] = system: A. baumannii (Ab) AR# 88; assay: as above
Experimental: as §1

[10] = system: K. pneumoniae (Kp) AR# 41; assay: as above
Experimental: as §1

[11] = system: A. baumannii (Ab) AR# 36; assay: as above
Experimental: as §1

[12] = system: K. pneumoniae (Kp) AR# 40; assay: as above
Experimental: as §1

[13] = system: K. pneumoniae (Kp) AR# 68; assay: as above
Experimental: as §1

[14] = system: A. baumannii (Ab) AR# 33; assay: as above
Experimental: as §1

[15] = system: A. baumannii (Ab) AR# 35; assay: as above
Experimental: as §1

[16] = system: A. baumannii (Ab) AR# 45; assay: as above
Experimental: as §1

[17] = system: A. baumannii (Ab) AR# 37; assay: as above
Experimental: as §1

[18] = system: A. baumannii ATCC BAA-1605; assay: MIC of carbapenems in presence and absence of 2-aminoimidazole compounds; settings: Acinetobacter baumannii, no 2-AI compound (None)
Text: (§2) The minimal inhibitory concentration (MIC) values of imipenem (I); meropenem (M) and doripenem (D) in the presence and absence of 2-aminoimidazole compounds are provided in Table 1. The concentration of each compound used in μM in the MIC assay is shown in parentheses.

[19] = system: K. pneumoniae ATCC BAA-2146; assay: as above; settings: Klebsiella pneumoniae, no 2-AI compound (None)
Text: as §2

[20] = system: A. baumannii AB5075; assay: as above; settings: Acinetobacter baumannii, no 2-AI compound (None)
Text: as §2

[21] = system: K. pneumoniae ATCC BAA-1705; assay: as above; settings: Klebsiella pneumoniae, no 2-AI compound (None)
Text: as §2

[22] = 7 μM of 2-amino imidazole compound
[23] = 15 μM of 2-amino imidazole compound
[24] = 2 μM of 2-amino imidazole compound
[25] = 60 μM of 2-amino imidazole compound
[26] = 30 μM of 2-amino imidazole compound
[27] = 32 μM of 2-amino imidazole compound
[28] = 16 μM of 2-amino imidazole compound
[29] = 4 μM of 2-amino imidazole compound
[30] = 64 μM of 2-amino imidazole compound
[31] = 8 μM of 2-amino imidazole compound

Nc1ncc(-c2cccc(NC(=O)Nc3cccc(-c4cnc(N)[nH]4)c3)c2)[nH]1 [Compound 92, 1,3-bis(3-(2-amino-1H-imidazol-5-yl)phenyl)urea]
Minimum Inhibitory Concentration of Meropenem [1, 22]: 256 (7) μg/mL
Minimum Inhibitory Concentration of Meropenem [2, 23]: 128 (15) μg/mL
Minimum Inhibitory Concentration of Meropenem [3, 24]: 2 (2) μg/mL
Minimum Inhibitory Concentration of Meropenem [4, 24]: 4 (2) μg/mL
Minimum Inhibitory Concentration of Meropenem [5, 25]: 64 (60) μg/mL
Minimum Inhibitory Concentration of Meropenem [6, 23]: 64 (15) μg/mL
Minimum Inhibitory Concentration of Meropenem [7, 22]: 8 (7) μg/mL
Minimum Inhibitory Concentration of Meropenem [8, 23]: 8 (15) μg/mL
Minimum Inhibitory Concentration of Meropenem [9, 23]: 64 (15) μg/mL
Minimum Inhibitory Concentration of Meropenem [10, 25]: 64 (60) μg/mL
Minimum Inhibitory Concentration of Meropenem [11, 23]: 4 (15) μg/mL
Minimum Inhibitory Concentration of Meropenem [12, 25]: 256 (60) μg/mL
Minimum Inhibitory Concentration of Meropenem [13, 26]: 64 (30) μg/mL
Minimum Inhibitory Concentration of Meropenem [14, 23]: 12 (15) μg/mL
Minimum Inhibitory Concentration of Meropenem [15, 26]: 8 (30) μg/mL
Minimum Inhibitory Concentration of Meropenem [16, 22]: 2 (7) μg/mL
Minimum Inhibitory Concentration of Meropenem [17, 23]: 32 (15) μg/mL

Nc1ncc(-c2ccc(NC(=O)Nc3ccc(-c4cnc(N)[nH]4)cc3)cc2)[nH]1 [Compound 93, 1,3-bis(4-(2-amino-1H-imidazol-5-yl)phenyl)urea]
Minimum Inhibitory Concentration of Meropenem [1, 27]: 16 (32) μg/mL
Minimum Inhibitory Concentration of Meropenem [2, 28]: 128 (16) μg/mL
Minimum Inhibitory Concentration of Meropenem [3, 29]: 3 (4) μg/mL
Minimum Inhibitory Concentration of Meropenem [4, 22]: 1 (7) μg/mL
Minimum Inhibitory Concentration of Meropenem [5, 27]: 32 (32) μg/mL
Minimum Inhibitory Concentration of Meropenem [6, 23]: 64 (15) μg/mL
Minimum Inhibitory Concentration of Meropenem [7, 23]: 8 (15) μg/mL
Minimum Inhibitory Concentration of Meropenem [8, 23]: 16 (15) μg/mL
Minimum Inhibitory Concentration of Meropenem [9, 22]: 64 (7) μg/mL
Minimum Inhibitory Concentration of Meropenem [10, 30]: 8 (64) μg/mL
Minimum Inhibitory Concentration of Meropenem [11, 23]: 16 (15) μg/mL
Minimum Inhibitory Concentration of Meropenem [12, 30]: 1024 (64) μg/mL
Minimum Inhibitory Concentration of Meropenem [13, 27]: 32 (32) μg/mL
Minimum Inhibitory Concentration of Meropenem [14, 22]: 64 (7) μg/mL
Minimum Inhibitory Concentration of Meropenem [15, 23]: 32 (15) μg/mL
Minimum Inhibitory Concentration of Meropenem [16, 22]: 2 (7) μg/mL
Minimum Inhibitory Concentration of Meropenem [17, 22]: 64 (7) μg/mL

C[C@@H](O)[C@H]1C(=O)N2C(C(=O)O)=C(S[C@@H]3CN[C@H](CNS(N)(=O)=O)C3)[C@H](C)[C@H]12 [D, doripenem]
MIC ([18]; read-out: MIC of doripenem (D)): 32 µg/mL
MIC ([19]; read-out: MIC of doripenem (D)): 256 µg/mL
MIC ([20]; read-out: MIC of doripenem (D)): 32 µg/mL
MIC ([21]; read-out: MIC of doripenem (D)): 64 µg/mL

CCCc1ccc(NC(=O)Nc2cccc(-c3cnc(N)[nH]3)c2)cc1 [Compound 2, 1-(3-(2-amino-1H-imidazol-5-yl)phenyl)-3-(4-propylphenyl)urea]
Minimum Inhibitory Concentration of Meropenem [1, 30]: 128 (64) μg/mL
Minimum Inhibitory Concentration of Meropenem [2, 30]: 64 (64) μg/mL
Minimum Inhibitory Concentration of Meropenem [3, 23]: 1.5 (15) μg/mL
Minimum Inhibitory Concentration of Meropenem [4, 22]: 2 (7) μg/mL
Minimum Inhibitory Concentration of Meropenem [5, 30]: 64 (64) μg/mL
Minimum Inhibitory Concentration of Meropenem [6, 23]: 96 (15) μg/mL
Minimum Inhibitory Concentration of Meropenem [7, 26]: 8 (30) μg/mL
Minimum Inhibitory Concentration of Meropenem [8, 23]: 8 (15) μg/mL
Minimum Inhibitory Concentration of Meropenem [9, 23]: 128 (15) μg/mL
Minimum Inhibitory Concentration of Meropenem [10, 30]: 32 (64) μg/mL
Minimum Inhibitory Concentration of Meropenem [11, 26]: 4 (30) μg/mL
Minimum Inhibitory Concentration of Meropenem [12, 30]: 1024 (64) μg/mL
Minimum Inhibitory Concentration of Meropenem [13, 27]: 256 (32) μg/mL
Minimum Inhibitory Concentration of Meropenem [14, 23]: 32 (15) μg/mL
Minimum Inhibitory Concentration of Meropenem [15, 23]: 16 (15) μg/mL
Minimum Inhibitory Concentration of Meropenem [16, 23]: 1.5 (15) μg/mL
Minimum Inhibitory Concentration of Meropenem [17, 23]: 64 (15) μg/mL

C[C@@H](O)[C@H]1C(=O)N2C(C(=O)O)=C(SCCN=CN)C[C@H]12 [I, imipenem]
MIC ([18]; read-out: MIC of imipenem (I)): 32 µg/mL
MIC ([19]; read-out: MIC of imipenem (I)): 128 µg/mL
MIC ([20]; read-out: MIC of imipenem (I)): 32 µg/mL
MIC ([21]; read-out: MIC of imipenem (I)): 64 µg/mL

Nc1ncc(-c2cccc(NC(=O)Nc3cc(Br)cc(Br)c3)c2)[nH]1 [Compound 7, 1-(3-(2-amino-1H-imidazol-5-yl)phenyl)-3-(3,5-dibromophenyl)urea]
Minimum Inhibitory Concentration of Meropenem [1, 23]: 64 (15) μg/mL
Minimum Inhibitory Concentration of Meropenem [2, 23]: 64 (15) μg/mL
Minimum Inhibitory Concentration of Meropenem [3, 29]: 2 (4) μg/mL
Minimum Inhibitory Concentration of Meropenem [4, 24]: 4 (2) μg/mL
Minimum Inhibitory Concentration of Meropenem [5, 22]: 64 (7) μg/mL
Minimum Inhibitory Concentration of Meropenem [6, 23]: 24 (15) μg/mL
Minimum Inhibitory Concentration of Meropenem [7, 29]: 32 (4) μg/mL
Minimum Inhibitory Concentration of Meropenem [8, 23]: 8 (15) μg/mL
Minimum Inhibitory Concentration of Meropenem [9, 23]: 64 (15) μg/mL
Minimum Inhibitory Concentration of Meropenem [10, 23]: 8 (15) μg/mL
Minimum Inhibitory Concentration of Meropenem [11, 22]: 8 (7) μg/mL
Minimum Inhibitory Concentration of Meropenem [12, 23]: 64 (15) μg/mL
Minimum Inhibitory Concentration of Meropenem [13, 22]: 128 (7) μg/mL
Minimum Inhibitory Concentration of Meropenem [14, 23]: 16 (15) μg/mL
Minimum Inhibitory Concentration of Meropenem [15, 26]: 32 (30) μg/mL
Minimum Inhibitory Concentration of Meropenem [16, 23]: 1 (15) μg/mL
Minimum Inhibitory Concentration of Meropenem [17, 22]: 32 (7) μg/mL

Cc1nc(N)[nH]c1-c1cccc(NC(=O)Nc2ccc(C(F)(F)F)c(Cl)c2)c1 [Compound 68, 1-(3-(2-amino-4-methyl-1H-imidazol-5-yl)phenyl)-3-(3-chloro-4-(trifluoromethyl)phenyl)urea]
Minimum Inhibitory Concentration of Meropenem [1, 29]: 128 (4) μg/mL
Minimum Inhibitory Concentration of Meropenem [2, 29]: 64 (4) μg/mL
Minimum Inhibitory Concentration of Meropenem [3, 29]: 4 (4) μg/mL
Minimum Inhibitory Concentration of Meropenem [4, 29]: 1 (4) μg/mL
Minimum Inhibitory Concentration of Meropenem [5, 22]: 32 (7) μg/mL
Minimum Inhibitory Concentration of Meropenem [6, 29]: 64 (4) μg/mL
Minimum Inhibitory Concentration of Meropenem [7, 24]: 128 (2) μg/mL
Minimum Inhibitory Concentration of Meropenem [8, 29]: 4 (4) μg/mL
Minimum Inhibitory Concentration of Meropenem [9, 29]: 64 (4) μg/mL
Minimum Inhibitory Concentration of Meropenem [10, 29]: 64 (4) μg/mL
Minimum Inhibitory Concentration of Meropenem [11, 29]: 48 (4) μg/mL
Minimum Inhibitory Concentration of Meropenem [12, 22]: 64 (7) μg/mL
Minimum Inhibitory Concentration of Meropenem [13, 22]: 128 (7) μg/mL
Minimum Inhibitory Concentration of Meropenem [14, 29]: 64 (4) μg/mL
Minimum Inhibitory Concentration of Meropenem [15, 29]: 64 (4) μg/mL
Minimum Inhibitory Concentration of Meropenem [16, 29]: 3 (4) μg/mL
Minimum Inhibitory Concentration of Meropenem [17, 29]: 64 (4) μg/mL

Nc1ncc(-c2ccc(NC(=O)Nc3ccc4c(c3)-c3[nH]c(N)nc3CC4)cc2)[nH]1 [Compound 97, 1-(4-(2-amino-1H-imidazol-5-yl)phenyl)-3-(2-amino-4,5-dihydro-1H-naphtho[1,2-d]imidazol-8-yl)urea]
Minimum Inhibitory Concentration of Meropenem [1, 28]: 128 (16) μg/mL
Minimum Inhibitory Concentration of Meropenem [2, 27]: 256 (32) μg/mL
Minimum Inhibitory Concentration of Meropenem [3, 24]: 2 (2) μg/mL
Minimum Inhibitory Concentration of Meropenem [4, 31]: 0.5 (8) μg/mL
Minimum Inhibitory Concentration of Meropenem [5, 28]: 32 (16) μg/mL
Minimum Inhibitory Concentration of Meropenem [6, 31]: 16 (8) μg/mL
Minimum Inhibitory Concentration of Meropenem [7, 31]: 8 (8) μg/mL
Minimum Inhibitory Concentration of Meropenem [8, 31]: 2 (8) μg/mL
Minimum Inhibitory Concentration of Meropenem [9, 28]: 32 (16) μg/mL
Minimum Inhibitory Concentration of Meropenem [10, 30]: 16 (64) μg/mL
Minimum Inhibitory Concentration of Meropenem [11, 31]: 1 (8) μg/mL
Minimum Inhibitory Concentration of Meropenem [12, 30]: 1024 (64) μg/mL
Minimum Inhibitory Concentration of Meropenem [13, 27]: 64 (32) μg/mL
Minimum Inhibitory Concentration of Meropenem [14, 28]: 4 (16) μg/mL
Minimum Inhibitory Concentration of Meropenem [15, 31]: 2 (8) μg/mL
Minimum Inhibitory Concentration of Meropenem [16, 31]: 1 (8) μg/mL
Minimum Inhibitory Concentration of Meropenem [17, 31]: 32 (8) μg/mL
